Experiments:
[1] = for vapor or sublimation pressure: Transpiration method; for Triple point temperature: DSC
[2] = Molar enthalpy of transition or fusion; settings: DSC

Br.CN [methylammonium bromide]
vapor or sublimation pressure [kPa], [1]
Settings | 433 K | 444 K | 454 K | 463 K | 468 K | 473 K | 488 K | 493 K | 498 K | 503 K
Crystal 1 | – | – | – | – | – | – | 0.1234 | 0.1563 | 0.1897 | 0.2394
Crystal 2 | 0.0057 | 0.0104 | 0.0202 | 0.0348 | 0.0413 | 0.0576 | – | – | – | –

Settings | Molar enthalpy of transition or fusion, Crystal 2 [kJ/mol] | Molar enthalpy of transition or fusion, Crystal 3 [kJ/mol] | Triple point temperature, Crystal 1 [K] | Triple point temperature, Crystal 2 [K] | Triple point temperature, Crystal 3 [K]
[1] | – | – | 520.5 | 480.8 | 392.1
[2] | 3.63 | 1.47 | – | – | –

Reference: the NIST ThermoML archive (doi:10.1016/j.tca.2019.02.008)
